Consider one compound from patent publication US7863446B2, “Heterocycles” (Orchid Research Laboratories Limited, priority 2006, dated 2011).

In assay [1] the test system is TNF-α. As to the kind of experiment: In vitro measurement of TNF-α in human PBMC (LPS stimulated). Type of assay: cell-based. The method in brief: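 Healthy-volunteer PBMC (0.5 million/well) in RPMI were pre-incubated with compound 15 min at 37 °C. They were then stimulated with E. coli B4 LPS 1 μg/ml for 18 h at 37 °C, 5% CO2. TNF-α in culture medium was measured by ELISA.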

A further assay has as its system Female Balb C. The experiment in a line: Psoriasis model (oxazolone induced dermatitis in mice). The class given is in vivo. The settings on record: topical on the ear, 24 hours after oxazolone. The method, then:
Inhibitory Activity in Psoriasis Model
Oxazolone induced dermatitis in mice was performed as described in the literature. Female Balb C were selected in the age of 6-7 weeks for the study and 20-25 g. Mice were sensitized with oxazolone (15%) from Day 1 to day 6 by applying it on the shaved abdomen. Elicitation was done with oxazolone (2%) on the ear on day 7. Test compounds were applied topically on the ear 15 minutes and 6 hours post oxazolone application on day 7. 24 hours after oxazolone application, ear thickness is measured and ear were excised under anesthesia and weighed.

For assay [2], the system named is TNF-α. The experiment in a line: LPS induced sepsis for measurement of TNF-α inhibition in mice. The settings on record: Mus musculus; TNF alpha inhibition in mice sepsis model. The class given is in vivo. The protocol:
LPS Induced Sepsis for Measurement of TNF-α Inhibition in Mice
The LPS induced sepsis model in mice was performed as described by Les sekut et al (J Lab Clin Med 1994; 124:813-20). Female Swiss albino mice were selected and the body weights were equivalent within each group. The mice were fasted for 20 hours with free access to water. The mice were dosed orally with the test compound suspended in vehicle containing 0.5% Tween 80 in 0.25% Carboxy-methylcellulose sodium salt. The control mice were administered the vehicle alone. After 30 minutes of oral dosing, mice were injected with 500 μg of Lipopolysaccharide (Escherichia coli, LPS: B4 from Siga) in phosphate buffer saline solution into the intraperitoneal cavity of the mice. After 90 minutes of LPS administration mice were bled via retro-orbital sinus puncture. Blood samples were stored overnight at 4° C. Serum samples were collected by centrifuging the samples at 4000 rpm for 15 minutes at 4° C. Immediately the serum samples were analysed for TNF-α levels using commercially available mouse TNF-α ELISA kit (Amersham Biosciences) and assay was performed by the manufacturer instruction.
ED50 Measurement of TNF alpha Inhibition in Mice Sepsis Model

A further assay has as its system Male Balbc mice. The experiment in a line: IBD-DSS model (DSS induced colitis). The class given is in vivo. The settings on record: Day 1 to 6, mice. The method, then:
Inhibitory Activity in IBD-DSS Model
DSS Induced colitis test was performed as described by Axelsson et al., 1998. Male Balbc mice were selected in the age of 7-8 weeks for the study. Colitis in mice was induced by providing DSS (2%) in the drinking water from day 1 to 6. Mice were dosed from Day 1 to 6 with test compound suspended in vehicle containing 0.25% carboxymethyl cellulose and 0.5% Tween 80. The control animals received vehicle alone. Body weight and disease activity index was recorded daily during the experiment. After 6 days of treatment, animals were sacrificed; colon weight and colon length was recorded.

What is called inhibition is the relative decrease from the control value, in per cent. In general, ED50 refers to the midpoint of the dose-response relation. Lower therefore signals greater potency. For `NS(=O)(=O)c1cccc(-c2c(-c3ccc(F)cc3)nc(C(F)(F)F)nc2-n2ccnc2)c1` [Example 80, 3-[4-(4-Fluorophenyl)-6-(1H-imidazol-1-yl)-2-(trifluoromethyl)pyrimidin-5-yl]benzenesulfonamide], the inhibition at 1 µM with TNF-α [1] (1 μM, NA = No activity, read-out: TNF-α Inhibition (%) at Conc. (1 μM)) turned out to be 30%. Further, the inhibition at 10 µM in the assay with TNF-α [1] (10 μM, read-out: TNF-α Inhibition (%) at Conc. (10 μM)) worked out at 75.3%. In the assay with Female Balb C, the “Psoriasis-acute-Oxazolone induced dermatitis % inhibition Ear Thick” value turned out to be 19.2% and the “Psoriasis-acute-Oxazolone induced dermatitis % inhibition Ear Wt” value is on record as 18.9%. Also, it took a dose of 2.13 mg/kg to reach the 50% effect level with TNF-α [2] (ED50). Also, the “IBD-DSS Model % Inhibition of DAI at 50 mg/kg” value with Male Balbc mice amounted to 35.94%.
